Assay results taken from patent US11878966B2, “Substituted 4-benzyl and 4-benzoyl piperidine derivates” (89BIO LTD, priority 2015, dated 2024).
Where a name gives a salt, the structure may show the parent alone.

Experiments:
[1] = target: T1, recombinant human baculovirus-expressed GST-tagged FASN (Homo sapiens, UniProt P49327); assay: FASN enzyme activity assay: fluorescence-based detection of CoA with CPM; type: biochemical; details: 5 nM FASN, 150 μM NADPH, 10 μM acetyl-CoA, 25 μM malonyl-CoA, 90 minutes incubation
T1 construct: GST; host or cells: baculovirus expression system (insect cells implied)
Procedure, shortened: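 GST-tagged human FASN (5 nM, baculovirus-expressed) in 50 mM HEPES pH 7.5 with 150 μM NADPH, 10 μM acetyl-CoA and 25 μM malonyl-CoA, 0.5% DMSO, started with malonyl-CoA and run 90 min. CoA was detected with CPM (30 min; ex 390/em 530 nm). IC50 came from sigmoidal variable-slope fits of % inhibition.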

T1 sequence (P49327 whole entry): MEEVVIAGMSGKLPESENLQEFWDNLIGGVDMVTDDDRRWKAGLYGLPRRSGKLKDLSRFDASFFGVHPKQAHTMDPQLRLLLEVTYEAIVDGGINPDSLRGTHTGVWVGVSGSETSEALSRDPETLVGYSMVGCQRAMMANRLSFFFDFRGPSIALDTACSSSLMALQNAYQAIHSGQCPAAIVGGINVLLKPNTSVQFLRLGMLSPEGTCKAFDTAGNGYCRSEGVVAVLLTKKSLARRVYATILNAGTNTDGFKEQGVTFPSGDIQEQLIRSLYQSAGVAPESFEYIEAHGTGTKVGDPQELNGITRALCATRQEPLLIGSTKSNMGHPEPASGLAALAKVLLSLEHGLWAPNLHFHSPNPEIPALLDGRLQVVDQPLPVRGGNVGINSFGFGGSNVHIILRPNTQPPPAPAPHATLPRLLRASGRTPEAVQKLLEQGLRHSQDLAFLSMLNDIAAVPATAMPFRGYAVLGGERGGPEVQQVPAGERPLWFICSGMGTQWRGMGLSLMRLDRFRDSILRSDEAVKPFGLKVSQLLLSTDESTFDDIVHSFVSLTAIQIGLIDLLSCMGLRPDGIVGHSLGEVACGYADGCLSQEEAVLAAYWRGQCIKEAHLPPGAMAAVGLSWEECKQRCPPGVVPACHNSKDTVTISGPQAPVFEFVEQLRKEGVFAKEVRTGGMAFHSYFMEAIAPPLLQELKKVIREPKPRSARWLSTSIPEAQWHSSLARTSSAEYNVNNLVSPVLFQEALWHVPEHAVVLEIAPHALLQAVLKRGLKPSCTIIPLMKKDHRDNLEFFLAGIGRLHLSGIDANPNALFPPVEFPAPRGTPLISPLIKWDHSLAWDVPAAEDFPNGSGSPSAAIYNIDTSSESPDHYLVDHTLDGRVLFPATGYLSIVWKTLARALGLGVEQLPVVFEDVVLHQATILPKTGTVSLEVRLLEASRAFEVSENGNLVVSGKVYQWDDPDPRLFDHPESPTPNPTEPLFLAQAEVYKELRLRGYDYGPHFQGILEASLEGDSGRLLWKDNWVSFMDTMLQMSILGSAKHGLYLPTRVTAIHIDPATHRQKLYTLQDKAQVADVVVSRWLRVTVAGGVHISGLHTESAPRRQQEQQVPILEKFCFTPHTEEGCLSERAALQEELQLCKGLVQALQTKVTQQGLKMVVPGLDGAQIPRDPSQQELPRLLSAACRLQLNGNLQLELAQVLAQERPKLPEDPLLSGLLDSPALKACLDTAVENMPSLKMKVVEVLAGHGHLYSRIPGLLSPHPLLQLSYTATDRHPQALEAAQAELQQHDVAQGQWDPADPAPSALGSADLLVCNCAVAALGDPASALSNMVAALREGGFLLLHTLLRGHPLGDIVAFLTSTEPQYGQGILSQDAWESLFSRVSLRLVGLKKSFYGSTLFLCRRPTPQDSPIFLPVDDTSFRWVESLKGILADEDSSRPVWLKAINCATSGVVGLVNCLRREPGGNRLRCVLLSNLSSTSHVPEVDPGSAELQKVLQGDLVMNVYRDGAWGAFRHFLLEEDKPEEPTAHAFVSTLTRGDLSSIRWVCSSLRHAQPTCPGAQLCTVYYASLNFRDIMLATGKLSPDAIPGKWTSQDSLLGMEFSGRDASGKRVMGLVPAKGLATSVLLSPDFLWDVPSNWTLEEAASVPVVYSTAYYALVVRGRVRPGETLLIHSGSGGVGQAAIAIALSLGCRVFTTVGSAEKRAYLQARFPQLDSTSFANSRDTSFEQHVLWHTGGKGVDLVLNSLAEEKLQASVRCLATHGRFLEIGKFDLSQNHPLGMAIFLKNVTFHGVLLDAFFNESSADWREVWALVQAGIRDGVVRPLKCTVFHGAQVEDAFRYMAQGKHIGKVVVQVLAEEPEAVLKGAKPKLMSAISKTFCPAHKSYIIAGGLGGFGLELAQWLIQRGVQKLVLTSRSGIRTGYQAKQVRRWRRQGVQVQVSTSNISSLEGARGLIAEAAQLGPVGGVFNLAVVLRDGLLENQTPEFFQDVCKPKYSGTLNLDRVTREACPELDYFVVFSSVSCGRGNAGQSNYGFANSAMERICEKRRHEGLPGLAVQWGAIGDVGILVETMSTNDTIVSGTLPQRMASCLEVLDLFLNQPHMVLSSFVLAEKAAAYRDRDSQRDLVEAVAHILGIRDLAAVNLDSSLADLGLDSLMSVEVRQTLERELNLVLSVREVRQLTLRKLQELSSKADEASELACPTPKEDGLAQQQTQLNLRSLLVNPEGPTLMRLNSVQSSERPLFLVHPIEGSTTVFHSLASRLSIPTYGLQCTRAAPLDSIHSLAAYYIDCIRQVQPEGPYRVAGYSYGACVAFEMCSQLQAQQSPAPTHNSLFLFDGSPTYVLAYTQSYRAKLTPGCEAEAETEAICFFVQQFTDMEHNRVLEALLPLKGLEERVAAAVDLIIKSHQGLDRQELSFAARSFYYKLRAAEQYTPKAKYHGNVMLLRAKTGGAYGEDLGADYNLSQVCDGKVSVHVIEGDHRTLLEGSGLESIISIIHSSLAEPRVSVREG

melting point [°C] | IC50 [1] [nM] | Structure (SMILES)
178 to 180 |  | CCC(=O)N1CCC(C(C)c2ccc(-c3cnc4ccccc4c3)cc2)CC1 (stereo not drawn) (as salt: HCl) [Example 39, 1-(4-(1-(4-(quinolin-3-yl)phenyl)ethyl)piperidin-1-yl)propan-1-one]
215 to 219 |  | CCC(=O)N1CCC(C(C)c2ccc(-c3cnc4ccccc4c3)cc2)CC1 (single isomer, unassigned) (as salt: HCl) [Example 67, 1-{4-[1-(4-Quinolin-3-yl-phenyl)-ethyl]-piperidin-1-yl}-propan-1-one]
169 to 171 | 1000 to 10000 | CCC(=O)N1CCC(C(C)c2ccc(-c3ccc4c(c3)NCCC4)cc2)CC1 (stereo not drawn) [Example 38, 1-(4-(1-(4-(1,2,3,4-tetrahydroquinolin-7-yl)phenyl)ethyl)piperidin-1-yl)propan-1-one]
153 to 155 | 1 to 99 | CCC(=O)N1CCC(C2(c3ccc(-c4cnc5ccccc5c4)cc3)CC2)CC1 [Example 40, 1-{4-[1-(4-quinolin-3-yl-phenyl)-cyclopropyl]-piperidin-1-yl}-propan-1-one]
100 to 102 | 1 to 99 | C=C(c1ccc(-c2cnc3ccccc3c2)cc1)C1CCN(C(=O)C2CC2)CC1 [Example 41, Cyclopropyl-{4-[1-(4-quinolin-3-yl-phenyl)-vinyl]-piperidin-1-yl}-methanone]
 | 1 to 99 | CCC(=O)N1CCC(F)(C(OCCOC)c2ccc(-c3ccc4cccnc4c3C)cc2)CC1 (stereo not drawn) [Example 226, 1-(4-Fluoro-4-{(2-methoxy-ethoxy)-[4-(8-methyl-quinolin-7-yl)-phenyl]-methyl}-piperidin-1-yl)-propan-1-one]
 | 1 to 99 | CCNC(=O)N1CCC(F)(Cc2ccc(-c3ccc4cccnc4c3C)cc2)CC1 [Example 228, N-ethyl-4-fluoro-4-[[4-(8-methyl-7-quinolyl)phenyl]methyl]piperidine-1-carboxamide]
 | 1 to 99 | CCONC(=O)N1CCC(Cc2ccc(-c3ccc4cccnc4c3C)cc2)CC1 [Example 232, N-ethoxy-4-[[4-(8-methyl-7-quinolyl)phenyl]methyl]piperidine-1-carboxamide]
 | 1 to 99 | Cc1c(-c2ccc(CC3CCN(C(=O)N(C)C)CC3)cc2)ccc2cccnc12 [Example 233, N,N-dimethyl-4-[[4-(8-methyl-7-quinolyl)phenyl]methyl]piperidine-1-carboxamide]

The next lines start with the compound.

Structure (SMILES) | melting point [°C] | IC50 [1] [nM]
CCC(=O)N1CCC(C(C)c2ccc(-c3cnc4ccccc4c3)cc2)CC1 (single isomer, unassigned) (as salt: HCl) [Example 68, 1-{4-[1-(4-Quinolin-3-yl-phenyl)-ethyl]-piperidin-1-yl}-propan-1-one] | 219 to 221 | 
CCC(=O)N1CCC(F)(C(OCCN2CCOCC2)c2ccc(-c3ccc4cccnc4c3C)cc2)CC1 (stereo not drawn) [Example 227, 1-{4-Fluoro-4-[[4-(8-methyl-quinolin-7-yl)-phenyl]-(2-morpholin-4-yl-ethoxy)-methyl]-piperidin-1-yl}-propan-1-one] |  | 1 to 99
CCNC(=O)N1CCC(Cc2ccc(-c3ccc4cccnc4c3C)cc2)CC1 [Example 229, N-ethyl-4-[[4-(8-methyl-7-quinolyl)phenyl]methyl]piperidine-1-carboxamide] |  | 1 to 99
CCNC(=O)N1CCC(Cc2ccc(-c3ccc4cccnc4c3OC)cc2)CC1 [Example 230, N-ethyl-4-[[4-(8-methoxy-7-quinolyl)phenyl]methyl]piperidine-1-carboxamide] |  | 1 to 99
CONC(=O)N1CCC(Cc2ccc(-c3ccc4cccnc4c3C)cc2)CC1 [Example 231, N-methoxy-4-[[4-(8-methyl-7-quinolyl)phenyl]methyl]piperidine-1-carboxamide] |  | 1 to 99
Cc1c(-c2ccc(CC3CCN(C(=O)N4CCCC4)CC3)cc2)ccc2cccnc12 [Example 234, [4-[[4-(8-methyl-7-quinolyl)phenyl]methyl]-1-piperidyl]-pyrrolidin-1-yl-methanone] |  | 1 to 99
